Test results published in patent US12391697B2, “Condensed bi-heterocycles as inhibiting agents for Bruton's tyrosine kinase” (BIOGEN MA INC., priority 2019, dated 2025).
Counter-ions that a name gives are not always drawn.

target: BTK (Homo sapiens (Human), UniProt Q06187); test: In Vitro BTK Kinase Assay: Btk-PolyGAT-LS Assay; assay type: biochemical; conditions: active BTK enzyme 0.25 nM, ATP 10 μM, polyGAT 100 nM, 30 minutes
Description: In Vitro BTK Kinase Assay: Btk-PolyGAT-LS Assay
The purpose of the BTK in vitro assay is to determine compound potency against BTK through the measurement of IC50. […] The BTK kinase reaction was done in a black 96 well plate (costar 3694). For a typical assay, a […] aliquot of a ATP/peptide master mix (final concentration; ATP 10 μM, polyGAT 100 nM) in kinase buffer (10 mM Tris-HCl pH 7.5, 10 mM MgCl2, 200 μM […], 5 mM DTT, 0.01% Triton X-100, and 0.2 mg/ml casein) is added to each well. Next, […] of a 4-fold, 40× compound titration in 100% DMSO solvent is added, followed by adding 15 uL of BTK enzyme mix in 1× kinase buffer (with a final concentration of 0.25 nM). The assay is incubated for 30 minutes before being stopped with […] of a 50 mM EDTA solution. Aliquots (5 uL) of the kinase reaction are transferred to a low volume white 384 well plate (Corning 3674), and […] of a 2× detection buffer (Invitrogen PV3574, with 4 nM Tb-PY20 antibody, Invitrogen PV3552) is added. The plate is covered and incubated for 45 minutes at room temperature. Time resolved fluorescence (TRF) on Molecular Devices M5 (332 nm excitation; 488 nm emission; 518 nm fluorescein emission) is measured.

Sequence of BTK (Q06187 whole entry): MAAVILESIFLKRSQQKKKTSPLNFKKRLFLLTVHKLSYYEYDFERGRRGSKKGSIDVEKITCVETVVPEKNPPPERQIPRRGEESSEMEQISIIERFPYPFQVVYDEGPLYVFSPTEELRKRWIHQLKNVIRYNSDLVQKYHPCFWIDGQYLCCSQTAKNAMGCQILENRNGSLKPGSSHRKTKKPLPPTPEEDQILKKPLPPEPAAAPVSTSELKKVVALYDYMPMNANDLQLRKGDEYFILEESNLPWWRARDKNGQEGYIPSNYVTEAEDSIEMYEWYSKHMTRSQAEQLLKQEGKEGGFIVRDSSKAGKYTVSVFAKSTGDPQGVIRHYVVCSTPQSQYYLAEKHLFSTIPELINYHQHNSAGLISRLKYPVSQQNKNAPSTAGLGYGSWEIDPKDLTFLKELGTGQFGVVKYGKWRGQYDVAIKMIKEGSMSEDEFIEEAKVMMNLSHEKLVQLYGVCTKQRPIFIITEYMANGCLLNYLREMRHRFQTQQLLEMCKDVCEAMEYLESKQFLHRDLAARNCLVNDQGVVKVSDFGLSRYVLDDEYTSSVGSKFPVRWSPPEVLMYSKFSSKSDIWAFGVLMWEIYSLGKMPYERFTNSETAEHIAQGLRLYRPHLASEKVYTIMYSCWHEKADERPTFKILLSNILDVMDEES

`Cc1cc(-c2ncnn3cc(OC4CCOCC4)cc23)ccc1CNC(=O)c1noc(C(C)(C)C)n1` [Example 79, 5-(tert-butyl)-N-(2-methyl-4-(6-((tetrahydro-2H-pyran-4-yl)oxy)pyrrolo[2,1-f][1,2,4]triazin-4-yl)benzyl)-1,2,4-oxadiazole-3-carboxamide] and `Cc1cc(-c2ncnn3cc(Br)cc23)ccc1CNC(=O)c1noc(C(C)(C)C)n1` [Example 51] fall in the same range of IC50: 1 to 10 nM for the first, 1 to 10 nM for the second.

`Cc1cc(-c2ncnn3cc(N4CCOC(C(C)C)C4)cc23)ccc1CNC(=O)c1nc(C(C)(C)C)no1` (centres unmarked) [Example 100] and `Cc1cc(-c2ncnn3cc(N4CCO[C@@H](C)C4)cc23)ccc1CNC(=O)c1noc(C(C)(C)C)n1` (single isomer, unassigned) [Example 29] cannot be ordered by IC50: 1 to 10 nM for the first, ≤ 1 nM for the second.

`Cc1cc(-c2ncnn3cc(-c4cnn(C)c4)cc23)ccc1CNC(=O)c1nnc(C(C)(C)C)o1` [Example 165] and `Cc1cc(-c2ncnn3cc(-c4cnn(C)c4)cc23)ccc1CNC(=O)c1nnn(C(C)(C)C)n1` [Example 113] cannot be ordered by IC50: ≤ 1 nM for the first, ≤ 1 nM for the second.

`Cc1cc(-c2cc3c(-c4ccc(CNC(=O)c5noc(C(C)(C)C)n5)c(C)c4)ncnn3c2)cnn1` [Example 170] and `Cc1cc(-c2cc3c(-c4ccc(CNC(=O)c5nc(C(C)(C)C)no5)c(C)c4)ncnn3c2)cnn1` [Example 171] cannot be ordered by IC50: ≤ 1 nM for the first, ≤ 1 nM for the second.

`CC(C)(C)n1cc(C(=O)NCc2ccc(-c3ncnn4cc(N5CCOCC5)cc34)cc2Cl)cn1` [Example 160] and `CC(C)(C)n1cc(C(=O)NCc2ccc(-c3ncnn4cc(N5CCOCC5)cc34)c(F)c2Cl)cn1` [Example 155] cannot be ordered by IC50: ≤ 1 nM for the first, ≤ 1 nM for the second.

`Cc1c(CNC(=O)c2noc(C(C)(C)C)n2)ccc(-c2ncnn3cc(-c4cnn(C)c4)cc23)c1F` [Example 112] and `Cc1c(CNC(=O)c2noc(C3(C)CC3)n2)ccc(-c2ncnn3cc(-c4cnn(C)c4)cc23)c1F` [Example 42, N-(3-fluoro-2-methyl-4-(6-(1-methyl-1H-pyrazol-4-yl)pyrrolo[2,1-f][1,2,4]triazin-4-yl)benzyl)-5-(1-methylcyclopropyl)-1,2,4-oxadiazole-3-carboxamide hydrochloride] cannot be ordered by IC50: ≤ 1 nM for the first, ≤ 1 nM for the second.

`Cc1cc(-c2ncnn3cc(-c4cnn(C5CC5)c4)cc23)ccc1CNC(=O)c1noc(C(C)(C)C)n1` [Example 237] and `Cc1cc(-c2ncnn3cc(-c4cncnc4)cc23)ccc1CNC(=O)c1noc(C(C)(C)C)n1` [Example 226] cannot be ordered by IC50: ≤ 1 nM for the first, ≤ 1 nM for the second.

`CC(C)(C)n1cc(C(=O)NCc2ccc(-c3ncnn4cc(N5CCOCC5)cc34)cc2C2CC2)nn1` [Example 205] and `Cc1c(CNC(=O)c2cn(C(C)(C)C)nn2)ccc(-c2ncnn3cc(N4CCOCC4)cc23)c1F` [Example 87] cannot be ordered by IC50: 1 to 10 nM for the first, ≤ 1 nM for the second.

`Cc1c(CNC(=O)c2noc(C(C)(C)C)n2)ccc(-c2ncnn3cc(N4CCOCC4)cc23)c1F` [Example 86] and `COc1c(CNC(=O)c2noc(C(C)(C)C)n2)ccc(-c2ncnn3cc(N4CCOCC4)cc23)c1F` [Example 223] cannot be ordered by IC50: ≤ 1 nM for the first, ≤ 1 nM for the second.

First: Cc1cc(-c2c(C#N)cnn3cccc23)ccc1CNC(=O)c1noc(C(C)(C)C)n1 [Example 53]
Second: Cc1cc(-c2ccnn3cccc23)ccc1CNC(=O)c1noc(C(C)(C)C)n1 [Example 17, 5-(tert-butyl)-N-(2-methyl-4-(pyrrolo[1,2-b]pyridazin-4-yl)benzyl)-1,2,4-oxadiazole-3-carboxamide]
The IC50 of the first is higher: > 10 nM for the first, 1 to 10 nM for the second. The second is the more potent here.

`CC(C)(C)c1noc(C(=O)NCc2ccc(-c3ncnn4cc(N5CCOCC5)cc34)cc2Cl)n1` [Example 159] and `CC(C)(C)c1noc(C(=O)NCc2ccc(-c3ncnn4cc(N5CCOCC5)cc34)cc2C(F)F)n1` [Example 192] cannot be ordered by IC50: ≤ 1 nM for the first, ≤ 1 nM for the second.

`Cc1cc(-c2ncnn3cc(-c4cnn(C)c4C)cc23)ccc1CNC(=O)c1nnn(C(C)(C)C)n1` [Example 129] and `Cc1cc(-c2ncnn3cc(-c4cnn(CC(F)F)c4)cc23)ccc1CNC(=O)c1nnn(C(C)(C)C)n1` [Example 146] cannot be ordered by IC50: ≤ 1 nM for the first, ≤ 1 nM for the second.

`Cn1cc(-c2cc3c(-c4ccc(CNC(=O)c5cn(C(C)(C)C)nn5)c(C(F)F)c4F)ncnn3c2)cn1` [Example 195] and `COc1cc(-c2ncnn3cc(-c4cnn(C)c4)cc23)ccc1CNC(=O)c1cn(C(C)(C)C)nn1` [Example 188] fall in the same range of IC50: 1 to 10 nM for the first, 1 to 10 nM for the second.

`CC(C)(C)n1cc(C(=O)NCc2ccc(-c3ncnn4cc(-c5cnn(CC(F)F)c5)cc34)cc2C(F)F)cn1` [Example 209] and `Cn1cc(-c2cc3c(-c4ccc(CNC(=O)c5noc(C(C)(C)C)n5)c(C(F)F)c4)ncnn3c2)cn1` [Example 219] cannot be ordered by IC50: ≤ 1 nM for the first, ≤ 1 nM for the second.

`COc1c(CNC(=O)c2nc(C(C)(C)C)no2)ccc(-c2ncnn3cc(N4CCOCC4)cc23)c1F` [Example 203] and `Cc1c(CNC(=O)c2nnc(C(C)(C)C)o2)ccc(-c2ncnn3cc(N4CCOCC4)cc23)c1F` [Example 81] cannot be ordered by IC50: ≤ 1 nM for the first, 1 to 10 nM for the second.

`Cc1cc(-c2ncnn3cc(N4CCO[C@H](C)C4)cc23)ccc1CNC(=O)c1nnn(C(C)(C)C)n1` (single isomer, unassigned) [Example 139] and `Cc1cc(-c2ncnn3cc(N4CCN(C)[C@@H](C)C4)cc23)ccc1CNC(=O)c1noc(C(C)(C)C)n1` (single isomer, unassigned) [Example 116] cannot be ordered by IC50: ≤ 1 nM for the first, ≤ 1 nM for the second.

First: Cc1cc(-c2ncnn3cc(C(=O)N4CCN(C)CC4)cc23)ccc1CNC(=O)c1noc(C(C)(C)C)n1 [Example 216]
Second: Cc1cc(-c2ncnn3cc(N4CC[C@@H](F)C4)cc23)ccc1CNC(=O)c1noc(C(C)(C)C)n1 (single isomer, unassigned) [Example 142]
The IC50 of the first is higher: > 10 nM for the first, ≤ 1 nM for the second. The second is the more potent here.

`Cc1cc(-c2ncnn3cccc23)ccc1CNC(=O)c1noc(C(C)(C)C)n1` [Example 151] and `Cc1cc(-c2ncnn3cncc23)ccc1CNC(=O)c1noc(C(C)(C)C)n1` [Example 54] fall in the same range of IC50: 1 to 10 nM for the first, 1 to 10 nM for the second.

`CC(C)(C)c1nc(C(=O)NCc2ccc(-c3ncnn4cccc34)cc2C(F)(F)F)no1` [Example 179] and `Cc1cc(-c2ncnn3ccc(F)c23)ccc1CNC(=O)c1noc(C(C)(C)C)n1` [Example 19, 5-(tert-butyl)-N-(4-(5-fluoropyrrolo[2,1-f][1,2,4]triazin-4-yl)-2-methylbenzyl)-1,2,4-oxadiazole-3-carboxamide trifluoroacetate] fall in the same range of IC50: 1 to 10 nM for the first, 1 to 10 nM for the second.

`Cc1cc(-c2ccnn3cccc23)ccc1CNC(=O)c1nc(C(C)(C)C)no1` [Example 18, 3-(tert-butyl)-N-(2-methyl-4-(pyrrolo[1,2-b]pyridazin-4-yl)benzyl)-1,2,4-oxadiazole-5-carboxamide] and `Cc1cc(-c2ncnn3cc(C#N)cc23)ccc1CNC(=O)c1noc(C(C)(C)C)n1` [Example 102] fall in the same range of IC50: 1 to 10 nM for the first, 1 to 10 nM for the second.

`Cc1cc(-c2ncnn3cc(-c4ncccn4)cc23)ccc1CNC(=O)c1noc(C(C)(C)C)n1` [Example 68, 5-(tert-butyl)-N-(2-methyl-4-(6-(pyrimidin-2-yl)pyrrolo[2,1-f][1,2,4]triazin-4-yl)benzyl)-1,2,4-oxadiazole-3-carboxamide hydrochloride] and `CC(C)(C)c1noc(C(=O)NCc2ccc(-c3ncnn4cc(N5CCOCC5)cc34)cc2C(F)(F)F)n1` [Example 186] cannot be ordered by IC50: ≤ 1 nM for the first, ≤ 1 nM for the second.

`Cc1c(CNC(=O)c2ccn(C(C)(C)C)n2)ccc(-c2ncnn3cc(N4CCOCC4)cc23)c1F` [Example 89] and `CC(C)(C)c1nc(C(=O)NCc2ccc(-c3ncnn4cc(N5CCOCC5)cc34)cc2C(F)F)co1` [Example 198] cannot be ordered by IC50: 1 to 10 nM for the first, ≤ 1 nM for the second.
